Data set [1] relates to differentiated PC-12 Adh cells. As to the kind of experiment: WST-1 cell viability assay for non-cytotoxic concentrations. The data set is classed as cell-based, rat. The conditions noted are these: for IC50: Rattus norvegicus, read-out: IC50 (cell viability assay). The protocol: (§1) PC-12 Adh cells were cultured in 10% horse serum, 5% fetal bovine serum, and 1% penicillin-streptomycin containing DMEM growth medium, at 37 °C in a humidified incubator with 5% CO2. The proliferating cells were passaged 1:2 to new 25 and/or 75 cm^2 flasks and cell stocks were prepared in order to use in future experiments. In order to induce PC-12 Adh cell differentiation into neuronal phenotype, growth medium was changed with 1% fetal bovine serum, 1% penicillin-streptomycin and 100 nM NGF containing DMEM differentiation medium.
Differentiated PC-12 Adh cells were stained with Trypan blue solution and counted by a cell counter device (Cedex XS, Innovatis, Malvern, PA, USA) in order to determine the appropriate cell numbers before the experiments.
In order to obtain non-cytotoxic concentrations of the compounds, the viability of neuronal cells was measured by using 2-(4-iodophenyl)-3-(4-nitrophenyl)-5-(2,4-disulfophenyl)-2H-tetrazolium sodium salt (WST-1) assay (Roche, Mannheim, Germany). The test is based on the cleavage of the tetrazolium salt WST-1 in formazan by mitochondrial dehydrogenases in viable cells. The formazan dye was quantified in a scanning multiwell spectrophotometer by measuring the absorbance of the dye at 420 nm. The differentiated PC-12 Adh cells were scratched and plated onto 96-well culture plates at 5 × 10^3 density per well. […] After the incubation period, the cell proliferation reagent WST-1 (10 μL per well) was added to the wells; and absorbances were measured after 3 h using a Cytation 3 cell imaging multi-mode reader at 420 nm (BioTek, Winooski, VT, USA). The measured absorbances directly correlated to the number of viable cells.
(In general: Tetrazolium assays rely on reduction of a dye to a coloured formazan, in cell work by metabolically active cells.)

Data set [2] concerns differentiated PC-12 Adh cells. As to the kind of experiment: Neuroprotective activity against 6-OHDA-induced neurotoxicity (WST-1 cell viability). The class given is cell-based, rat. The note with it: for induction in cell viability percentage compared with the 6-OHDA-positive control group (statistical analysis): 100 µg/mL, one-way ANOVA and Tukey’s post hoc test, ** p < 0.01. The protocol: as §1
(§2) The differentiated PC-12 Adh cells were scratched and plated onto 96-well culture plates at 5 × 10^3 density per well. […] After 24 h, the neuroprotective effects of the compounds were determined by WST-1 cell viability assay as explained above. The graphics were drawn according to the cell viability, which was expressed as percentage of the surviving control cells in the study.
(§3) The graphics were drawn with Graphpad Prism 6.0 software and statistically analyzed using one-way ANOVA and Tukey’s post hoc test.

Assay in data set [3]: as above
The data set is classed as cell-based, rat. The note with it: rat, 150 µM 6-OHDA alone for 24 h (positive control); % of the control. The protocol: as §1, §2, §3

Where [4] appears, read: differentiated PC-12 Adh cells, 24 h treatment, WST-1.
The mark [5] stands for this setting: 100 µg/mL compound for 6 h, then 150 µM 6-OHDA for 24 h.

These results are taken from paper PMC6225304, “Design, Synthesis, and Neuroprotective Effects of a Series of Pyrazolines against 6-Hydroxydopamine-Induced Oxidative Stress” (Molecules : A Journal of Synthetic Chemistry and Natural …, 2018).

Where “and” joins values, the source holds several entries; their conditions need not be identical. Equal entries are not always repeated. Where two headings read alike, the source gives them in different places.

A word on the melting point: it is the temperature of the solid-liquid transition. The IC50 is the concentration that gives 50% inhibition. As to `Cc1ccc(/C=C/C(=O)c2ccco2)cc1` [Compound 1, 1-(2-Furanyl)-3-aryl-2-propen-1-one], the melting point lay in the range of 111 to 113 °C. Besides, the IC50 in data set [1] (setting [4]) is 12 µg/mL. Besides, the “cytotoxicity (effect on cell viability, in words)” value in data set [1] (differentiated PC-12 Adh cells, 100 µg/mL) is reported as “highly cytotoxic”. Moreover, the “reduction in cell viability” value in data set [2] (10 µg/mL compound for 6 h, then 150 µM 6-OHDA for 24 h) is listed as 40%. The “reduction in cell viability” value in data set [2] (setting [5]) was 97%.

As for `O=C(/C=C/c1ccc2c(c1)OCO2)c1cccs1` [Compound 2, 1-(2-Thienyl)-3-aryl-2-propen-1-one], the IC50 in data set [1] (setting [4]) was 345 µg/mL. For the same molecule, the “reduction in cell viability” value in data set [2] (setting [5]) was 34.1%.

`Cc1ccc(C2CC(c3ccco3)=NN2c2ccccc2)cc1` (centres unmarked) [Compound 3a, 1-Phenyl-3-(2-furanyl)-5-(4-methylphenyl)-2-pyrazoline]: in data set [1] (setting [4]), the IC50 was more than 400 µg/mL.

As for `Cc1ccc(C2CC(c3ccco3)=NN2c2ccc(C#N)cc2)cc1` (centres unmarked) [Compound 3b, 1-(4-Cyanophenyl)-3-(2-furanyl)-5-(4-methylphenyl)-2-pyrazoline], in data set [1] (setting [4]), the IC50 is 204 µg/mL.

For `Cc1ccc(C2CC(c3ccco3)=NN2c2ccc(F)cc2)cc1` (centres unmarked) [Compound 3c, 1-(4-Fluorophenyl)-3-(2-furanyl)-5-(4-methylphenyl)-2-pyrazoline], in data set [1] (setting [4]), the IC50 is 353 µg/mL.

With `Cc1ccc(C2CC(c3ccco3)=NN2c2ccc(Cl)cc2)cc1` (centres unmarked) [Compound 3d, 1-(4-Chlorophenyl)-3-(2-furanyl)-5-(4-methylphenyl)-2-pyrazoline], the IC50 in data set [1] (setting [4]) is more than 400 µg/mL.

As for `Cc1ccc(C2CC(c3ccco3)=NN2c2ccc(Br)cc2)cc1` (centres unmarked) [Compound 3e, 1-(4-Bromophenyl)-3-(2-furanyl)-5-(4-methylphenyl)-2-pyrazoline], the IC50 in data set [1] (setting [4]) turned out to be 398 µg/mL.

In the case of `Cc1ccc(C2CC(c3ccco3)=NN2c2ccc(C)cc2)cc1` (centres unmarked) [Compound 3f, 1-(4-Methylphenyl)-3-(2-furanyl)-5-(4-methylphenyl)-2-pyrazoline], the IC50 in data set [1] (setting [4]) is more than 400 µg/mL.

As to `COc1ccc(N2N=C(c3ccco3)CC2c2ccc(C)cc2)cc1` (centres unmarked) [Compound 3g, 1-(4-Methoxyphenyl)-3-(2-furanyl)-5-(4-methylphenyl)-2-pyrazoline], the IC50 in data set [1] (setting [4]) was more than 400 µg/mL.

As for `Cc1ccc(C2CC(c3ccco3)=NN2c2ccc(S(C)(=O)=O)cc2)cc1` (centres unmarked) [Compound 3h, 1-(4-Methylsulfonylphenyl)-3-(2-furanyl)-5-(4-methylphenyl)-2-pyrazoline], the half-maximal inhibitory concentration (IC50) in data set [1] (setting [4]) is more than 400 µg/mL. Also, the “reduction in cell viability” value in data set [2] (setting [5]) is listed as 20%. The “induction in cell viability percentage compared with the 6-OHDA-positive control group (statistical analysis)” value in data set [2] is “significant”.

Take `Cc1ccc(C2CC(c3ccco3)=NN2c2ccc(S(N)(=O)=O)cc2)cc1` (centres unmarked) [Compound 3i, 1-(4-Sulfonamidophenyl)-3-(2-furanyl)-5-(4-methylphenyl)-2-pyrazoline]: the IC50 in data set [1] (setting [4]) came to 205 µg/mL.

With `c1ccc(N2N=C(c3cccs3)CC2c2ccc3c(c2)OCO3)cc1` (centres unmarked) [Compound 4a, 1-Phenyl-3-(2-thienyl)-5-(1,3-benzodioxol-5-yl)-2-pyrazoline], in data set [1] (setting [4]), the IC50 is more than 400 µg/mL.

Regarding `N#Cc1ccc(N2N=C(c3cccs3)CC2c2ccc3c(c2)OCO3)cc1` (centres unmarked) [Compound 4b, 1-(4-Cyanophenyl)-3-(2-thienyl)-5-(1,3-benzodioxol-5-yl)-2-pyrazoline], in data set [1] (setting [4]), the IC50 was more than 400 µg/mL.

For the molecule `Fc1ccc(N2N=C(c3cccs3)CC2c2ccc3c(c2)OCO3)cc1` (centres unmarked) [Compound 4c, 1-(4-Fluorophenyl)-3-(2-thienyl)-5-(1,3-benzodioxol-5-yl)-2-pyrazoline], the IC50 in data set [1] (setting [4]) is more than 400 µg/mL.

As to `Clc1ccc(N2N=C(c3cccs3)CC2c2ccc3c(c2)OCO3)cc1` (centres unmarked) [Compound 4d, 1-(4-Chlorophenyl)-3-(2-thienyl)-5-(1,3-benzodioxol-5-yl)-2-pyrazoline], the IC50 in data set [1] (setting [4]) is more than 400 µg/mL.

For the molecule `Brc1ccc(N2N=C(c3cccs3)CC2c2ccc3c(c2)OCO3)cc1` (centres unmarked) [Compound 4e, 1-(4-Bromophenyl)-3-(2-thienyl)-5-(1,3-benzodioxol-5-yl)-2-pyrazoline], the IC50 in data set [1] (setting [4]) is more than 400 µg/mL.

On to `Cc1ccc(N2N=C(c3cccs3)CC2c2ccc3c(c2)OCO3)cc1` (centres unmarked) [Compound 4f, 1-(4-Methylphenyl)-3-(2-thienyl)-5-(1,3-benzodioxol-5-yl)-2-pyrazoline], for which the IC50 in data set [1] (setting [4]) was 239 µg/mL.

On to `COc1ccc(N2N=C(c3cccs3)CC2c2ccc3c(c2)OCO3)cc1` (centres unmarked) [Compound 4g, 1-(4-Methoxyphenyl)-3-(2-thienyl)-5-(1,3-benzodioxol-5-yl)-2-pyrazoline], for which, in data set [1] (setting [4]), the IC50 is 252 µg/mL.

Consider `CS(=O)(=O)c1ccc(N2N=C(c3cccs3)CC2c2ccc3c(c2)OCO3)cc1` (centres unmarked) [Compound 4h, 1-(4-Methylsulfonylphenyl)-3-(2-thienyl)-5-(1,3-benzodioxol-5-yl)-2-pyrazoline], for which the IC50 in data set [1] (setting [4]) was more than 400 µg/mL. Besides, the “reduction in cell viability” value in data set [2] (setting [5]) was found to be 23%. Also, the “induction in cell viability percentage compared with the 6-OHDA-positive control group (statistical analysis)” value in data set [2] is on record as “significant”.

As for `NS(=O)(=O)c1ccc(N2N=C(c3cccs3)CC2c2ccc3c(c2)OCO3)cc1` (centres unmarked) [Compound 4i, 1-(4-Sulfonamidophenyl)-3-(2-thienyl)-5-(1,3-benzodioxol-5-yl)-2-pyrazoline], the IC50 in data set [1] (setting [4]) is more than 400 µg/mL.

A word on the viability: it is a read-out of living cells in per cent, often relative to untreated cells. High values mean better survival, low ones a greater loss of cells. `NCCc1cc(O)c(O)cc1O` [Compound 6-OHDA, 6-hydroxydopamine]: the IC50 in data set [1] (PC-12, 24 h) was determined as 150 µM. For the same molecule, in data set [2] (150 µM 6-OHDA alone for 24 h (positive control)), the “reduction in cell viability” value was 42.13% and 43% and 42%. The molecule also showed a viability at 24 h, 150 µM in data set [3] of 57%.
